We go through four compounds from PubChem BioAssay (NCI).

Some test systems named below: HL-60(TB) leukemia; NCI-H23 lung; U251 CNS; HCT-15 colon; 786-0 renal; OVCAR-3 ovarian; MCF7 breast; SF-295 CNS; EKVX NSCLC; HS 578T breast; BT-549 breast; NCI-H226 lung; UACC-62 melanoma; SN12C renal; K-562 leukemia.
What all share (experiment): NCI anticancer screen, dose series, 48 h

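Step 1: Grow cells in 96-well plates. Step 2: Expose to compound for 48 hours at 5 concentrations. Step 3: Interpolate endpoints linearly; if unreached, use highest concentration. TGI: total growth inhibition.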

Turning to `CCOC(=O)c1c(Br)c(-c2ccc([N+](=O)[O-])cc2)c(Br)n1C`, the TGI in the assay on HL-60(TB) leukemia, in the assay with NCI-H23 lung, in the assay with U251 CNS, in the assay on HCT-15 colon, in the assay with 786-0 renal and in the assay on OVCAR-3 ovarian was > 10 µM in each case. Moreover, the TGI with MCF7 breast, in the assay on SF-295 CNS, with EKVX NSCLC, in the assay on HS 578T breast, with BT-549 breast and in the assay with NCI-H226 lung was > 10 µM throughout. For the same compound, the TGI with UACC-62 melanoma, with SN12C renal and in the assay on K-562 leukemia was > 10 µM throughout.

Turning to `COc1ccc2nc3c([N+](=O)[O-])ccc4c3c(c2c1)N=CN4CCN(C)C`, the TGI is 0.616 µM with HL-60(TB) leukemia; 21.1 µM in the assay with NCI-H23 lung; 24.5 µM in the assay with U251 CNS; 16.6 µM in the assay with HCT-15 colon; 21.5 µM with 786-0 renal; 17 µM in the assay on OVCAR-3 ovarian. Besides, the TGI was 14.2 µM with MCF7 breast; 21.7 µM with SF-295 CNS; 18 µM in the assay with EKVX NSCLC; 28.1 µM in the assay on HS 578T breast; 28.6 µM with BT-549 breast; 20.3 µM in the assay with NCI-H226 lung. The TGI is 27.4 µM in the assay with UACC-62 melanoma, 12.5 µM in the assay on SN12C renal and 2.94 µM in the assay on K-562 leukemia.

Turning to `COc1ccc(C(SCCO)(c2ccc(OC)cc2)c2ccc(OC)cc2)cc1`, the TGI was determined as 87.7 µM in the assay on HL-60(TB) leukemia; 45.2 µM in the assay with NCI-H23 lung; 32.6 µM in the assay with U251 CNS; 44.6 µM in the assay on HCT-15 colon; 29.7 µM in the assay on 786-0 renal; 28.4 µM with OVCAR-3 ovarian. Also, the TGI came out at 31.6 µM in the assay with MCF7 breast; 39.2 µM in the assay on SF-295 CNS; 36.5 µM with EKVX NSCLC; 44.7 µM with HS 578T breast; 38.4 µM in the assay with BT-549 breast; 32.7 µM in the assay with NCI-H226 lung. Also, the results for the TGI in the assay on UACC-62 melanoma, with SN12C renal and in the assay on K-562 leukemia were 30.1 µM, 33.9 µM and 28.4 µM, respectively.

For `Cc1cc(S(=O)(=O)Nc2nnc3c(Cl)cc(C(F)(F)F)cn23)c(S)cc1Cl`, the TGI in the assay on HL-60(TB) leukemia, in the assay with NCI-H23 lung, with U251 CNS, in the assay on HCT-15 colon, in the assay with 786-0 renal and with OVCAR-3 ovarian was > 100 µM each time. In addition, the TGI with MCF7 breast, with SF-295 CNS, in the assay on EKVX NSCLC, with HS 578T breast, in the assay with BT-549 breast and in the assay on NCI-H226 lung was > 100 µM throughout. The TGI with UACC-62 melanoma, with SN12C renal and with K-562 leukemia was > 100 µM each time.
